According to patent US20230107216A1, “PANTETHEINE DERIVATIVES AND USES THEREOF” (Comet Therapeutics, Inc., priority 2018, published 2023):
Where two headings read alike, the source gives them in different places.

Experiments:
[1] = system: primary fibroblasts (healthy controls and PA, MMA, BCKDK, PDH, VLCAD, LS, PC, GA, VLCFA, KSS, FXN, HD); assay: Measurement of ROS (H2DCFDA) in primary fibroblasts; type: cell-based, human; conditions: procedure Example 812; for inhibition at 10 µM: Homo sapiens
In short: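 Patient and healthy-control primary fibroblasts switched to supplemented DMEM 24 h before assay, then treated with compound (10 μM) plus H2DCFDA (22 μM) for 2 h (PA, MMA lines) or 24 h (other lines). Kinetic fluorescence at 492/527 nm over 60 min; only live cells analysed.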

[2] = system: HepG2 cells; assay: Mitochondrial membrane potential (MITO-ID MP detection Kit); type: cell-based; conditions: Homo sapiens, 168 h, 7 days; for inhibition at 50 µM / inhibition at 10 µM: read-out: % decrease in Mitochondrial Membrane Potential; for activation at 10 µM: read-out: % increase in Mitochondrial Membrane Potential
In short: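 Cells plated at 160000 cells/mL in DMEM with 10% FBS and 1% Pen-Strep, adhered overnight at 37° C., 5% CO2. Exposure to test compounds (50-10 μM) or 0.2% DMSO for 7 days without media change; membrane potential measured with MITO-ID MP detection kit per manufacturer.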

[3] = Fibroblast, PDH GM01503, Assay Condition C, read-out: Decreased ROS by at least 10%
[4] = Fibroblast, PDH GM01503, Assay Condition C, read-out: Decreased ROS by at least 30%
[5] = FXN GM04078, Assay Condition C, read-out: Decreased ROS by at least 10%
[6] = FXN GM04078, Assay Condition C, read-out: Decreased ROS by at least 30%
[7] = Fibroblast, BCKD GM00612, Assay Condition A, read-out: Decreased ROS by at least 10%
[8] = Fibroblast, VLCFA GM13262, Assay Condition C, read-out: Decreased ROS by at least 30%
[9] = Fibroblast, BCKD GM00649, Assay Condition C, read-out: Decreased ROS by at least 10%
[10] = Fibroblast, BCKD GM00649, Assay Condition C, read-out: Decreased ROS by at least 30%
[11] = Fibroblast, NPC1 GM22879, Assay Condition C, read-out: Decreased ROS by at least 10%

Structure (SMILES): CC(C)(CO)[C@@H](O)C(=O)NCCC(=O)NCCSC(=O)CC(O)C(=O)O (stereo partly drawn) [Compound 39]
- inhibition at 10 µM ([1]; Fibroblast, VLCAD GM17475, Assay Condition C, read-out: Decreased ROS by at least 10%): ≥ 10%
- inhibition at 50 µM [2]: > 50%

Structure (SMILES): CC(C)(CO)[C@@H](O)C(=O)NCCC(=O)NCCSC(CC(=O)OCC[N+](C)(C)C)C(=O)O (stereo partly drawn) [Compound 51, [2-([3-carboxy-3-[(2-[3-[(2R)-2,4-dihydroxy-3,3-dimethylbutanamido]propanamido]ethyl)sulfanyl]propanoyl]oxy)ethyl]trimethylazanium]
- activation at 10 µM [2]: > 10%

Structure (SMILES): C[C@H](O)CC(=O)CC(=O)SCCNC(=O)CCNC(=O)[C@H](O)C(C)(C)CO [Compound 1306, (2R)-2,4-dihydroxy-N-[2-[(2-[[(5S)-5-hydroxy-3-oxohexanoyl]sulfanyl]ethyl)carbamoyl]ethyl]-3,3-dimethylbutanamide]
- Decreased ROS by at least 30% ([1]; Healthy GM05659, Assay Condition A): ≥ 30%
- Decreased ROS by at least 30% ([1]; Healthy GM23974, Assay Condition A): ≥ 30%
- inhibition at 10 µM [1, 3]: ≥ 10%
- inhibition at 10 µM [1, 4]: ≥ 30%
- inhibition at 10 µM [1, 5]: ≥ 10%
- inhibition at 10 µM [1, 6]: ≥ 30%

Structure (SMILES): COC(=O)CC[C@H](N)C(=O)SCCNC(=O)CCNC(=O)[C@H](O)C(C)(C)CO [Compound 411]
- inhibition at 10 µM [1, 7]: ≥ 10%
- inhibition at 10 µM [1, 8]: ≥ 30%
- inhibition at 10 µM [1, 5]: ≥ 10%
- inhibition at 10 µM [1, 6]: ≥ 30%
- activation at 10 µM [2]: 10%
- inhibition at 50 µM [2]: > 20%

Structure (SMILES): COC(=O)C(C)C(=O)SCCNC(=O)CCNC(=O)[C@H](O)C(C)(C)CO (stereo partly drawn) [Compound 405]
- inhibition at 10 µM [1, 9]: ≥ 10%
- inhibition at 10 µM [1, 10]: ≥ 30%
- inhibition at 50 µM [2]: > 50%

Structure (SMILES): CC(C)(CO)[C@@H](O)C(=O)NCCC(=O)NCCSC(=O)C1CCC(=O)N1 (stereo partly drawn) [Compound 1227, S-2-{3-[(R)-2,4-dihydroxy-3,3-dimethylbutyrylamino]propionylamino}ethyl 5-oxo-2-pyrrolidinecarbothioate]
- inhibition at 10 µM [2]: > 30%

Structure (SMILES): CC(C)(COC(=O)CCC(=O)O)[C@@H](O)C(=O)NCCC(=O)NCCS [Compound 1310, (R)-4-(3-hydroxy-4-((3-((2-mercaptoethyl)amino)-3-oxopropyl)amino)-2,2-dimethyl-4-oxobutoxy)-4-oxobutanoic acid]
- inhibition at 10 µM [1, 7]: ≥ 10%
- inhibition at 10 µM [1, 8]: ≥ 30%
- activation at 10 µM [2]: 20%
- inhibition at 50 µM [2]: > 30%

Structure (SMILES): CC1(CC(=O)SCCNC(=O)CCNC(=O)[C@H](O)C(C)(C)CO)OCCO1 [Compound 1252, (R)—S-(2-(3-(2,4-dihydroxy-3,3-dimethylbutanamido)propanamido)ethyl)-2-(2-methyl-1,3-dioxolan-2-yl)ethanethioate]
- inhibition at 10 µM [1, 3]: ≥ 10%
- inhibition at 10 µM [1, 4]: ≥ 30%
- activation at 10 µM [2]: > 20%

Structure (SMILES): COC(=O)CCC(=O)SCCNC(=O)CCNC(=O)[C@H](O)C(C)(C)CO [Compound 4, Methyl (R)-4-((2-(3-(2,4-dihydroxy-3,3-dimethylbutanamido)propanamido)ethyl)thio)-4-oxobutanoate]
- inhibition at 10 µM [1, 9]: ≥ 10%
- inhibition at 10 µM [1, 10]: ≥ 30%
- inhibition at 10 µM [2]: > 30%

Structure (SMILES): COC(=O)/C=C/C(=O)SCCNC(=O)CCNC(=O)[C@H](O)C(C)(C)COP(=O)(O)O [Compound 73, methyl (R,E)-4-((2-(3-(2-hydroxy-3,3-dimethyl-4-(phosphonooxy)butanamido)propanamido)ethyl)thio)-4-oxobut-2-enoate]
- inhibition at 10 µM [1, 11]: ≥ 10%
- inhibition at 50 µM [2]: > 30%

Structure (SMILES): CC(C)(CO)[C@@H](OC(=O)CCC(=O)O)C(=O)NCCC(=O)NCCS [Compound 1311, (R)-4-((4-hydroxy-1-((3-((2-mercaptoethyl)amino)-3-oxopropyl)amino)-3,3-dimethyl-1-oxobutan-2-yl)oxy)-4-oxobutanoic acid]
- inhibition at 10 µM [1, 7]: ≥ 10%
- inhibition at 10 µM [1, 8]: ≥ 30%
- inhibition at 10 µM [1, 5]: ≥ 10%
- inhibition at 10 µM [1, 6]: ≥ 30%
- activation at 10 µM [2]: > 10%

Structure (SMILES): CC(C)=CC(=O)SCCNC(=O)CCNC(=O)[C@H](O)C(C)(C)CO [Compound 37, S-2-{3-[(R)-2,4-dihydroxy-3,3-dimethylbutyrylamino]propionylamino}ethyl 3-methyl-2-butenethioate]
- inhibition at 10 µM ([1]; Fibroblast, VLCFA GM13262, Assay Condition C, read-out: Decreased ROS by at least 10%): ≥ 10%
- inhibition at 10 µM [1, 8]: ≥ 30%

Structure (SMILES): CC(C)(CO)[C@@H](O)C(=O)NCCC(=O)NCCSC(=O)CCCO [Compound 1304, (2R)-2,4-dihydroxy-N-[2-([2-[(4-hydroxybutanoyl)sulfanyl]ethyl]carbamoyl)ethyl]-3,3-dimethylbutanamide]
- inhibition at 10 µM [1, 3]: ≥ 10%
- inhibition at 10 µM [1, 4]: ≥ 30%

Structure (SMILES): CC(C)C(=O)CC(=O)SCCNC(=O)CCNC(=O)[C@H](O)C(C)(C)CO [Compound 1239, (R)—S-(2-(3-(2,4-dihydroxy-3,3-dimethylbutanamido)propanamido)ethyl) 4-methyl-3-oxopentanethioate]
- inhibition at 10 µM [1, 7]: ≥ 10%
- inhibition at 10 µM [1, 8]: ≥ 30%
- inhibition at 10 µM [1, 5]: ≥ 10%
- inhibition at 10 µM [1, 6]: ≥ 30%

Structure (SMILES): CCCCCCC(=O)SCCNC(=O)CCNC(=O)[C@H](O)C(C)(C)CO [Compound 372, (2R)—N-(2-[[2-(heptanoylsulfanyl)ethyl]carbamoyl]ethyl)-2,4-dihydroxy-3,3-dimethylbutanamide]
- inhibition at 10 µM [1, 5]: ≥ 10%
- inhibition at 10 µM [1, 6]: ≥ 30%

Structure (SMILES): COC(=O)CCC(=O)SCCNC(=O)CCNC(=O)[C@H](O)C(C)(C)COC(C)=O [Compound 138]
- inhibition at 10 µM [1, 11]: ≥ 10%
- inhibition at 10 µM ([1]; Fibroblast, NPC1 GM22879, Assay Condition C, read-out: Decreased ROS by at least 30%): ≥ 30%
- inhibition at 10 µM [1, 5]: ≥ 10%

Structure (SMILES): CC(C(=O)SCCNC(=O)CCNC(=O)[C@H](O)C(C)(C)CO)[C@@H](C)O (stereo partly drawn) [Compound 1244, (2R)-2,4-dihydroxy-N-{2-[(2-{[(3R)-3-hydroxy-2-methylbutanoyl]sulfanyl}ethyl)carbamoyl]ethyl}-3,3-dimethylbutanamide]
- inhibition at 10 µM [1, 7]: ≥ 10%
- inhibition at 10 µM [1, 8]: ≥ 30%

Structure (SMILES): C/C=C/C(=O)SCCNC(=O)CCNC(=O)[C@H](O)C(C)(C)COP(=O)(O)O [Compound 82, (R)—S-(2-(3-(2-hydroxy-3,3-dimethyl-4-(phosphonooxy)butanamido)propanamido)ethyl) (E)-but-2-enethioate]
- activation at 10 µM [2]: 10%
- inhibition at 50 µM [2]: > 20%

Structure (SMILES): CCC(C)C(=O)CC(=O)SCCNC(=O)CCNC(=O)[C@H](O)C(C)(C)CO (stereo partly drawn) [Compound 1240, S-(2-(3-((R)-2,4-dihydroxy-3,3-dimethylbutanamido)propanamido)ethyl) 4-methyl-3-oxohexanethioate]
- inhibition at 10 µM [1, 7]: ≥ 10%
- inhibition at 10 µM [1, 8]: ≥ 30%
- inhibition at 10 µM [1, 5]: ≥ 10%
- inhibition at 10 µM [1, 6]: ≥ 30%
- inhibition at 50 µM [2]: > 50%

Structure (SMILES): CC(=O)SCCNC(=O)CCNC(=O)[C@H](O)C(C)(C)COC(=O)CN [Compound 560, (3R)-3-[(2-[[2-(acetylsulfanyl)ethyl]carbamoyl]ethyl)carbamoyl]-3-hydroxy-2,2-dimethylpropyl 2-aminoacetate]
- inhibition at 10 µM [1, 5]: ≥ 10%

Structure (SMILES): C[C@H](CC(=O)SCCNC(=O)CCNC(=O)[C@H](O)C(C)(C)CO)OC(=O)CCC(=O)O [Compound 1243, 4-{[(2R)-4-[(2-{3-[(2R)-2,4-dihydroxy-3,3-dimethylbutanamido]propanamido}ethyl)sulfanyl]-4-oxobutan-2-yl]oxy}-4-oxobutanoic acid]
- inhibition at 10 µM [1, 9]: ≥ 10%
- inhibition at 10 µM [1, 10]: ≥ 30%
- inhibition at 10 µM [1, 5]: ≥ 10%
- inhibition at 10 µM [1, 6]: ≥ 30%
